We go through 4 compounds from patent publication US5538971A, “Benzoquinoxalines, pharmaceutical compositions containing them and their use in treating schizophrenia” (Sandoz Ltd., priority 1991, dated 1996).

Data set [1] relates to rat. Kind of data set: inhibition of locomotor activity increase induced by a D-1 agonist. The following applies: for inhibition of locomotor activity increase (in words): rat, D-1 agonist 10 mg/kg p.o., for the invention's compounds doses of ca. 0.1 to 10 mg/kg p.o. or ca. 0.1 to 0.5 mg/kg s.c. The format is in vivo. The method, then:
In this test, the substance to be tested is applied one hour before the D-1 agonist, and the locomotor activity is measured under red light using photoelectric cells.

The next data set concerns mouse. Put plainly: apomorphine induced rearing test. The class given is in vivo. The method, then:
Thus when administered to the mouse at doses of ca. 0.05 to ca. 1 mg/kg p.o., there is observed a significant inhibition of the rearing induced by subcutaneous administration of 0.5 mg/kg of apomorphine. In this test, each mouse is contained in a glass cylinder (20 cm high, 8 cm diameter) on absorbent cardboard and rearing is quantified by accumulating the time spent with both forepaws off the ground during three 1-minute periods at 10 minute intervals after apomorphine administration. […] This test detects both classical and atypical anti-psychotics and thus has predictive value for efficacy in schizophrenia.

Data set [2] has as its target T1, dopamine receptors of the D-1 type (Bos taurus, UniProt Q95136).
T1 construct: homogenates of bovine retina; from tissue; host or cells: bovine retina homogenate
Kind of data set: inhibition of the dopamine-induced stimulation of adenylate cyclase in homogenates of bovine retina. The format is biochemical. The following applies: calculated from IC50 according to Cheng and Prusoff, read-out: pKi, adenylate cyclase functional test (converted). The source says:
At concentrations of ca. 1 nmol/l to ca. […] the compounds according to the invention effect strong inhibition of the dopamine-induced stimulation of adenylate cyclase in homogenates of bovine retina [for the method see R. Markstein, Journal Neural. Transmission 51, 39-59 (1981)].
This activity also indicates the use of the compounds according to the invention in schizophrenia.

Data set [3] deals with rat. Put plainly: cataleptogenic activity (catalepsy). The class given is in vivo. Conditions: rat, 1, 3.2 and 10 mg/kg p.o., observation period of 8 hours. The method, then:
Furthermore at doses of ca. 1 to ca. 10 mg/kg p.o., the compounds according to the invention effect no catalepsy of the rat. Cataleptogenic activity is assessed as described by G. Stille et al. in Arzneimittel Forschung 15, 841-843 (1965). The criterion for catalepsy is fulfilled when posture retention time is longer than 10 seconds. In view of the lack of cataleptogenic activity, the risk that the compounds according to the invention might cause extra-pyramidal side effects is improbable.

The mark [4] stands for this setting: Mus musculus, po, 0.5 h, read-out: ED50, apomorphine-induced rearing.
Where [5] appears, read: Mus musculus, sc, 0.5 h, read-out: ED50, apomorphine-induced rearing.

Each structure is given as a SMILES string. Where two headings read alike, the source gives them in different places.

T1 sequence (Q95136 whole entry): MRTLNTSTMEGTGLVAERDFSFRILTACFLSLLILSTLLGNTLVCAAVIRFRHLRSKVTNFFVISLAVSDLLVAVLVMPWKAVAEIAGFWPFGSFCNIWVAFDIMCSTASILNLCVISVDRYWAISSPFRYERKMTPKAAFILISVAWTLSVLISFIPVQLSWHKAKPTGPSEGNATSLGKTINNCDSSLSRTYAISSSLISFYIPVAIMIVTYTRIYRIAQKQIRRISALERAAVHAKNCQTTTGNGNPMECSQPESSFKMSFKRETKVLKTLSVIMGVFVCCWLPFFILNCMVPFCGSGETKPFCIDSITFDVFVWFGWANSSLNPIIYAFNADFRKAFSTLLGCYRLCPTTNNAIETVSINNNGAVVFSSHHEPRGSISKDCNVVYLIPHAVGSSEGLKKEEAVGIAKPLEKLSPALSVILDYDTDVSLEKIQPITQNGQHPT

As to `CN1CCN(C2=Nc3cc(Cl)ccc3Nc3ccccc32)CC1` [Clozapine, reference compound], in the data set on rat [1], the “inhibition of locomotor activity increase (in words)” value is “active”. Also, the ED50 with mouse (po, 0.5 h, mouse, p.o., after 30 minutes, apomorphine 0.5 mg/kg s.c., read-out: ED50, apomorphine-induced rearing) was 4.3 mg/kg; in the data set with mouse (sc, 0.5 h, mouse, s.c., after 30 minutes, apomorphine 0.5 mg/kg s.c., read-out: ED50, apomorphine-induced rearing), 0.66 mg/kg.
For the compound `CN1CC[C@@H](c2ccccc2)[C@@H]2c3cccc4[nH]c(Cl)c(c34)C[C@H]21` (stereo in doubt) [phenylergoline, (+)-(5R)[5β, 9α, 10α]-2-chloro-6-methyl-9-phenylergoline, reference compound], the inhibition at 2 mg/kg with rat [1] (Rattus norvegicus, Rat2, po, read-out: inhibition of locomotor activity increase) was found to be 45%.
As to `O=C(CCCN1CCC(O)(c2ccc(Cl)cc2)CC1)c1ccc(F)cc1` [Haloperidol, reference compound], the ED50 worked out at 0.03 mg/kg with mouse (setting [4]) and 0.008 mg/kg in the data set on mouse (setting [5]).
Regarding `Cc1cc(Cl)ccc1N1CCN(C)[C@@H]2Cc3cccc(O)c3C[C@H]21` [Example 2, (-)-[4aR,10aR]-l,2,3,4,4a,5,10,10a-octahydro-4-(4'-chloro-2'-methyl-phenyl)-1-methyl-benzo[g]quinoxaline-6-ol], the inhibition at 1 mg/kg in the data set with rat [1] (Rattus norvegicus, po, read-out: inhibition of locomotor activity increase) is 76%. Further, the “inhibition of locomotor activity increase (in words)” value in the data set on rat [1] is reported as “inhibits the locomotor activity increase more potently”. Also, the ED50 stood at 0.38 mg/kg in the data set on mouse (setting [4]); 0.28 mg/kg with mouse (Mus musculus, po, 1 h, read-out: E50, apomorphine-induced rearing after subchronic treatment); 0.14 mg/kg with mouse (Mus musculus, po, 1 h, read-out: ED50, apomorphine-induced rearing); 0.033 mg/kg with mouse (setting [5]); 0.04 mg/kg with mouse (Mus musculus, sc, 1 h, read-out: ED50, apomorphine-induced rearing). The Ki in data set [2] was 50.1 nM. For the same compound, the catalepsy result with rat [3] is given as “fails to produce catalepsy”.
